Assay results reported in patent publication US5686424A, “2-oxoethyl derivatives as immunosuppressants” (Miles Inc., priority 1995, dated 1997).
Where two headings read alike, the source gives them in different places.

What was measured:
FKBP = FKBP (Homo sapiens, UniProt P62942); test: PPIase Inhibition Assay; format: biochemical
Method: 1) Inhibition of PPIase Activity
This assay follows in principle the procedure described in Kofron et al., 1991, Biochemistry 30:6127.
The three main reagents used are PPIase, a substrate for PPIase, and a selected inhibitor compound of the present invention. The basic principle behind this assay is the conversion of the cis isomer of the substrate to the trans form, which conversion is catalyzed by PPIase. Essentially, inhibition of this PPIase activity is measured for the selected compounds. A peptide chymotrypsin substrate containing a proline in the P2 position is only cleaved by chymotrypsin when the Phe-Pro bond is in the trans isomeric configuration. In the presence of excess chymotrypsin, all of the trans peptide isomers are cleaved within approximately five seconds, leaving only cis forms.
The cis peptide will spontaneously convert to the trans isomer at a slow rate. The cis to trans conversion is catalyzed by isomerases at a much faster rate than this spontaneous conversion. Proteins with PPIase activity are examples of such isomerases. After isomerization, the peptide is cleaved by chymotrypsin releasing p-nitroaniline which can be monitored at 390 nm. The rate of release is then calculated using a first order rate plus offset equation utilizing the ENZFITTER program (Leatherbarrow, BIOSOFT, Cambridge, United Kingdom).
In a plastic cuvette are added 950 ul of ice cold assay buffer (25 mM HEPES, pH 7.8, 100 mM NaCl), 10 uL of FKBP (2.5 uM in 10 mM Tris-Cl pH 7.5, 100 mM NaCl, 1 mM dithiothreitol), 25 ul of chymotrypsin (50 mg/ml in 1 mM HCl) and 10 ul of the test compound at various concentrations in dimethyl sulphoxide. The reaction is initiated by addition of 5 ul of substrate (Succinyl-Ala-Phe-Pro-Phe-para-nitroanilide, 5 mg/ml in 235 mM LiCl in trifluoroethanol).
The absorbance at 390 nm versus time is monitored for 90 sec using a Beckman DU70 spectrophotometer. The absorbance versus time data files are transferred to an IBM XT computer and the rate constants determined using the commercial enzfitter program. For each set of data, the uncatalyzed rate of conversion is measured and the uninhibited enzymatic rate determined. The data are expressed as % Activity remaining and are calculated as follows:
% Activity Remaining=(kobs -kuncat)/(kuninh
where kobs is the rate in the presence of a selected test compound, kuncat is the rate in the absence of enzyme, and kuninh is the rate in the presence of enzyme
Data was plotted as the velocity in the absence of the inhibitor (V-) divided by the velocity in the presence of inhibitor (V+) versus the inhibitor concentration. The IC50 can be determined following linear regression as the inhibitor concentration where

human T-cells = test: Suppression of Human T-Cell Proliferation Assay (PHA-stimulated, [3H]-thymidine incorporation); format: cell-based; conditions: read-out: IC50
Excerpt: 2) Human T Lymphocyte Inhibition
Inhibition of mitogen-induced T-cell proliferation can be used to profile immunosuppressive activity of test compounds. In the description of the assay which follows, mitogen-induced T-cell activation was used to test the inhibitory potencies of select compounds of the present invention.
In an assay similar to that described by Bradley in Mishell et al. (Eds.), 1980, Selected Methods in Cellular Immunology, pp 156-161, W. H. Freeman & Co., San Fransisco, Calif., T-cells were stimulated by incubation with phytohemagglutinin (PHA) which binds to cell surface molecules, including the T-cell receptor. This stimulation results in proliferation which can be measured by incorporation of [^3 H]-thymidine into cellular DNA.
The immunosuppressive properties of the compounds of the present invention can be determined by adding various concentrations of the compounds to these cultures and measuring the effect on T-cell proliferation.
Suppression of Human T-Cell Proliferation Assay
Fresh LeukoPaks were obtained from the New York Blood Center, New York, N.Y. The cells, including erythrocytes and leukocytes, were diluted with Hank's Balanced Salt Solution (HBSS) (GIBCO, Grand Island, N.Y.) and layered over Lymphoprep (Nycomed Pharma AS, Oslo, Norway) in sterile 50 ml conical centrifuge tubes. Lymphocytes were isolated at the Hank's/Nycomed interface after centrifugation at 2000×g, 4° C. for 15 min. The lymphocytes were washed with Minimal Essential Medium (GIBCO) containing 2% fetal bovine serum (FBS) (Sigma Chemical Co., St. Louis, Mo.), 1% HEPES buffer (GIBCO) and 1% Penicillin-Stretomycin solution (GIBCO).
T-cells were further purified essentially by sheep erythrocyte (SRBC) rosetting as described by Morimoto et al., 1983, J. Immunol. 130:157. The isolated lymphocytes were adjusted to 2×10^7 cells/ml and 5 ml aliquots of the cell suspension were incubated for 10 minutes at room temperature with 5 ml of a 5% SRBC (Cappel, Organon Technika Corp., West Chester, Pa.) suspension. The cells were gently pelleted by centrifugation at 300 rpm for 10 minutes, followed by a 1 hour incubation at room temperature to allow rosette formation. The cells were gently resuspended,layered over Lymphoprep and centrifuged for 30 minutes at 500×g. The pellet, containing rosetted T-cells and SRBC was treated with ice cold buffered ammonium chloride (GIBCO) to lyse the erythrocytes. T-cells were washed twice with HBSS.
Purified T-cells were resuspended at 2×10^6 cells/ml in complete culture medium composed of RPMI-1640 (Whittaker Bioproducts, Walkerville, Md.) with 10% FBS (Sigma), 2 mM L-glutamine (GIBCO), 1% Penicillin-Streptomycin (GIBCO) and 15 mM HEPES (GIBCO). In 96-well plates (Becton Dickinson, Lincoln Park, N.J.), 0.1 ml aliquots of T-cell suspension were mixed with 0.05 ml of 40 μg/ml PHA-M (Sigma). The compounds of this invention were dissolved in dimethylsulfoxide at 10 mM and various dilutions in complete medium were added in duplicate wells (0.05 ml/well). The plates were incubated at 37° C. in a humidified atmosphere of 5% carbon dioxide and 95% air for 72 hours.
Proliferation was assessed by measurement of [^3 H]-thymidine incorporation. During the last 6 hours of incubation, the cells were pulse labelled with 1 μCi/well of [^3 H]-thymidine (New England Nuclear, Boston, Mass.). The cells were harvested onto glass fiber paper using a plate harvester and the radioactivity incorporated into cellular DNA corresponding to individual wells was measured by standard liquid scintillation counting methods.

[1] = concentration of inhibitor required for 50% inhibition of enzyme activity, FKBP, substrate Succinyl-Ala-Phe-Pro-Phe-para-nitroanilide, TABLE I
[2] = concentration inhibiting [3H]-thymidine incorporation of PHA-stimulated T-cells by 50%, 72 hours, TABLE 2

Chain of FKBP (P62942 whole entry): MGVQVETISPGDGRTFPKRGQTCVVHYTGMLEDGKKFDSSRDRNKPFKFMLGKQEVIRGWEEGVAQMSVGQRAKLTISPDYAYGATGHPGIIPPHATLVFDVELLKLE

## CC[C@H](C)[C@H](NC(=O)[C@@H]1CCCN1CC(=O)c1cc(OC)ccc1OC)C(=O)NCc1ccccc1 [Example 27, L-Isoleucine, N-[1-(2-(2,5-Dimethoxyphenyl)-2-Oxoethyl)-L-Prolyl] Benzylamide]
FKBP; [1]
  IC50: 12 µM
Human T-cells; [2]
  IC50: 20 µM

## CC[C@H](C)[C@H](NC(=O)[C@@H]1CCCN1CC(=O)c1ccc(-c2ccccc2)cc1)C(=O)NC(C)(C)C [Example 52, L-Isoleucine, N-[1-(2-(Biphenyl-4-yl)-2-Oxoethyl)-L-Prolyl] tert-Butylamide]
FKBP
  IC50: < 50 µM
Human T-cells
  IC50: > 50 µM

## CC[C@H](C)[C@H](NC(=O)[C@@H]1CCCN1CC(=O)N1CCCCC1C)C(=O)NCc1ccccc1 (stereo partly drawn) [Example 75, L-Isoleuclne, N-[1-[2-(2-Methylpiperidine)-2-Oxoethyl]-L-Prolyl] Benzylamide]
FKBP; [1]
  IC50: < 5 µM
Human T-cells; [2]
  IC50: 37 µM

## CC[C@H](C)[C@@H](C(=O)NCc1ccccc1)N(C)C(=O)[C@@H]1CCCN1CC(=O)c1ccccc1 [Example 16, L-Isoleucine, N-Methyl-N-[1-(2-Phenyl-2-Oxoethyl)-L-Prolyl] Benzylamide]
FKBP; [1]
  IC50: > 50 µM
Human T-cells; [2]
  IC50: > 50 µM

## CC[C@H](C)[C@H](NC(=O)[C@@H]1CCCN1CC(=O)c1cccc(OCc2ccccc2)c1)C(=O)NCc1ccccc1 [Example 31, L-Isoleucine, N-[1-(2-(3-Benzyloxyphenyl)-2-Oxoethyl)-L-Prolyl] Benzylamlde]
FKBP; [1]
  IC50: < 5 µM
Human T-cells; [2]
  IC50: 32 µM

## CC[C@H](C)[C@H](NC(=O)[C@@H]1CCCN1CC(=O)N1CCN(c2ccccc2)CC1)C(=O)NCc1ccccc1 [Example 77, L-Isoleucine, N-[1-[2-(4-Phenylpiperazine)-2-Oxoethyl]-L-Prolyl] Benzylamlde]
FKBP; [1]
  IC50: < 5 µM
Human T-cells; [2]
  IC50: 28 µM

## O=C(CN1CCC[C@H]1C(=O)N[C@@H](Cc1ccccc1)C(=O)NCc1ccccc1)c1ccc(-c2ccccc2)cc1 [Example 53, L-Phenylalanine, N-[1-(2-(Biphenyl-4-yl)-2-Oxoethyl)-L-Prolyl] Benzylamide]
FKBP
  IC50: > 50 µM
Human T-cells
  IC50: 16 µM

## C/C=C/C=C/COC(=O)CN1CCC[C@H]1C(=O)N[C@H](C(=O)NCc1ccccc1)[C@@H](C)CC (relative stereo) [Example 12, L-Isoleucine, N-[1-(2-(trans,trans-Hexa-2,4-dienyl-1-oxy)-2-Oxoethyl)-L-Prolyl] Benzylamide]
FKBP; [1]
  IC50: 5.8 µM
Human T-cells; [2]
  IC50: 35 µM

## CC[C@H](C)[C@H](NC(=O)[C@@H]1CCCN1CC(=O)O)C(=O)NCc1ccccc1 [Example 71, L-Isoleucine, N-[1-(Carboxymethyl)-L-Prolyl] Benzylamide]
FKBP; [1]
  IC50: > 5 µM
Human T-cells; [2]
  IC50: > 50 µM

## CC[C@H](C)[C@H](NC(=O)[C@@H]1CCCN1CC(=O)N1CCC(c2ccccc2)CC1)C(=O)NCc1ccccc1 [Example 82, L-Isoleucine, N-[1-(2-(4-Phenylpiperidyl)-2-Oxoethyl)-L-Prolyl] Benzylamide]
FKBP; [1]
  IC50: < 5 µM
Human T-cells; [2]
  IC50: 20 µM

## CC[C@H](C)[C@H](NC(=O)[C@@H]1CCCCN1CC(=O)c1ccccc1)C(=O)NCc1ccccc1 [Example 17, L-Isoleucine, N-[1-(2-Phenyl-2-Oxoethyl)-L-Homoproline] Benzylamide]
FKBP; [1]
  IC50: < 50 µM
Human T-cells; [2]
  IC50: > 50 µM

## CC[C@H](C)[C@H](NC(=O)[C@@H]1CCCN1CC(=O)c1ccccc1)C(=O)NCc1ccccc1 [Example 7, L-Isoleucine, N-[1-(2-Phenyl-2-Oxoethyl)-L-Prolyl] Benzylamide]
FKBP; [1]
  IC50: 2.7 µM
Human T-cells; [2]
  IC50: < 50 µM

## CC[C@H](C)[C@H](NC(=O)[C@@H]1CCCN1CC(=O)NCCO)C(=O)NCc1ccccc1 [Example 76, L-Isoleucine, N-[1-(2-(2-Hydroxyethylamine)-2-Oxoethyl)-L-Prolyl] Benzylamide]
FKBP; [1]
  IC50: > 5 µM
Human T-cells; [2]
  IC50: > 50 µM

## CC[C@H](C)[C@H](NC(=O)[C@@H]1CCCN1CC(=O)N1CCC(Cc2ccccc2)CC1)C(=O)NCc1ccccc1 [Example 74, L-Isoleucine, N-[1-[2-(N-(4-Benzylpiperidyl))-2-Oxoethyl]-L-Prolyl] Benzylamide]
FKBP; [1]
  IC50: < 5 µM
Human T-cells; [2]
  IC50: < 50 µM
